ChEMBL document CHEMBL1201862, “PubChem BioAssay data set” (2004)
Values belong to the molecule of their own block, whether it stands above or below them. The source made the active and inactive calls.

Legend:
[1] = target: Induced myeloid leukemia cell differentiation protein Mcl-1 (Homo sapiens, UniProt Q07820); format: functional
[2] = viability of PTEN-deleted HCT116 cells – cell-based, HCT116 PTEN knockout, dose response (AID 1047); format: functional;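 note: HCT116 colon tumor cells with PTEN knocked out; cells exposed to compound for 60 hours before readout; potency for loss of cell viability measured by luminescence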
[3] = viability of HCT116 lacking mutant beta-catenin – cell-based, human colon tumor, dose response (AID 1045); format: functional;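 note: HCT116 colon tumor cells with beta catenin knocked out; cells exposed to compound for 60 hours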
[4] = Trypanosoma cruzi growth suppression in host cells – NIH3T3 host cells, beta-gal luminescence, confirmation (AID 2044); format: functional, cell-based;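 note: intracellular parasites grown in NIH/3T3 mouse fibroblasts as host cells; luminescent beta-galactosidase reporter signal from transgenic T. cruzi replicating inside host cells; inhibitors lower the luminescence signal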
[5] = NIH3T3 cell viability loss – ATP luminescence, mouse fibroblasts, counter-screen, dose response (AID 2010); format: functional, cell-based;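 note: cells exposed to compound for about 90 hours before reading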
Paired box protein Pax-8 = Paired box protein Pax-8 (Homo sapiens, UniProt Q06710); experiment: PAX8 transcriptional activity inhibition in RMG-I – RMG-I cells, luciferase, cherry-pick, dose response (AID 687027); format: functional, cell-based;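 note: luciferase reporter driven by Pax8 target thyroperoxidase promoter measured by SteadyGlo luminescence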
Chain of Paired box protein Pax-8 (Q06710 whole entry): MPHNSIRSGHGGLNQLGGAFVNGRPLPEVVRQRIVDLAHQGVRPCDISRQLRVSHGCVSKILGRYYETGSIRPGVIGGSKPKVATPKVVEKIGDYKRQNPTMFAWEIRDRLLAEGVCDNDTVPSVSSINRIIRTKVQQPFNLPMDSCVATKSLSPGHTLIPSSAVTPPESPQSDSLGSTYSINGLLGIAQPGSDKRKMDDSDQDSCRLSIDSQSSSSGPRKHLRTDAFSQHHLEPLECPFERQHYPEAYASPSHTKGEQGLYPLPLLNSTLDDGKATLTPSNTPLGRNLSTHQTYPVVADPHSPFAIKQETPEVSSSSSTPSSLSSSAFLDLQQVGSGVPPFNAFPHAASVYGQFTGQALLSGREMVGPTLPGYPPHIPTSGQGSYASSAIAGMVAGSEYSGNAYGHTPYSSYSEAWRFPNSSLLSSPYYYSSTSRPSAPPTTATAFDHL

P388/ADR = experiment: cells; format: functional; settings: Mus musculus
SN12K1 = experiment: cells; format: functional; settings: Homo sapiens
P388 = experiment: cells; format: functional; settings: Mus musculus
Fatty acid synthase [6] = target: T1, Fatty acid synthase (Homo sapiens, UniProt P49327); experiment: inhibition of human FAS-TE enzyme activity – biochemical, endpoint fluorescence intensity, uHTS hits, dose response (AID 624327); format: functional;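 note: fluorescence from hydrolysis of an O-methyl fluorescein acyl ester substrate by the enzyme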
T1 sequence (P49327 whole entry): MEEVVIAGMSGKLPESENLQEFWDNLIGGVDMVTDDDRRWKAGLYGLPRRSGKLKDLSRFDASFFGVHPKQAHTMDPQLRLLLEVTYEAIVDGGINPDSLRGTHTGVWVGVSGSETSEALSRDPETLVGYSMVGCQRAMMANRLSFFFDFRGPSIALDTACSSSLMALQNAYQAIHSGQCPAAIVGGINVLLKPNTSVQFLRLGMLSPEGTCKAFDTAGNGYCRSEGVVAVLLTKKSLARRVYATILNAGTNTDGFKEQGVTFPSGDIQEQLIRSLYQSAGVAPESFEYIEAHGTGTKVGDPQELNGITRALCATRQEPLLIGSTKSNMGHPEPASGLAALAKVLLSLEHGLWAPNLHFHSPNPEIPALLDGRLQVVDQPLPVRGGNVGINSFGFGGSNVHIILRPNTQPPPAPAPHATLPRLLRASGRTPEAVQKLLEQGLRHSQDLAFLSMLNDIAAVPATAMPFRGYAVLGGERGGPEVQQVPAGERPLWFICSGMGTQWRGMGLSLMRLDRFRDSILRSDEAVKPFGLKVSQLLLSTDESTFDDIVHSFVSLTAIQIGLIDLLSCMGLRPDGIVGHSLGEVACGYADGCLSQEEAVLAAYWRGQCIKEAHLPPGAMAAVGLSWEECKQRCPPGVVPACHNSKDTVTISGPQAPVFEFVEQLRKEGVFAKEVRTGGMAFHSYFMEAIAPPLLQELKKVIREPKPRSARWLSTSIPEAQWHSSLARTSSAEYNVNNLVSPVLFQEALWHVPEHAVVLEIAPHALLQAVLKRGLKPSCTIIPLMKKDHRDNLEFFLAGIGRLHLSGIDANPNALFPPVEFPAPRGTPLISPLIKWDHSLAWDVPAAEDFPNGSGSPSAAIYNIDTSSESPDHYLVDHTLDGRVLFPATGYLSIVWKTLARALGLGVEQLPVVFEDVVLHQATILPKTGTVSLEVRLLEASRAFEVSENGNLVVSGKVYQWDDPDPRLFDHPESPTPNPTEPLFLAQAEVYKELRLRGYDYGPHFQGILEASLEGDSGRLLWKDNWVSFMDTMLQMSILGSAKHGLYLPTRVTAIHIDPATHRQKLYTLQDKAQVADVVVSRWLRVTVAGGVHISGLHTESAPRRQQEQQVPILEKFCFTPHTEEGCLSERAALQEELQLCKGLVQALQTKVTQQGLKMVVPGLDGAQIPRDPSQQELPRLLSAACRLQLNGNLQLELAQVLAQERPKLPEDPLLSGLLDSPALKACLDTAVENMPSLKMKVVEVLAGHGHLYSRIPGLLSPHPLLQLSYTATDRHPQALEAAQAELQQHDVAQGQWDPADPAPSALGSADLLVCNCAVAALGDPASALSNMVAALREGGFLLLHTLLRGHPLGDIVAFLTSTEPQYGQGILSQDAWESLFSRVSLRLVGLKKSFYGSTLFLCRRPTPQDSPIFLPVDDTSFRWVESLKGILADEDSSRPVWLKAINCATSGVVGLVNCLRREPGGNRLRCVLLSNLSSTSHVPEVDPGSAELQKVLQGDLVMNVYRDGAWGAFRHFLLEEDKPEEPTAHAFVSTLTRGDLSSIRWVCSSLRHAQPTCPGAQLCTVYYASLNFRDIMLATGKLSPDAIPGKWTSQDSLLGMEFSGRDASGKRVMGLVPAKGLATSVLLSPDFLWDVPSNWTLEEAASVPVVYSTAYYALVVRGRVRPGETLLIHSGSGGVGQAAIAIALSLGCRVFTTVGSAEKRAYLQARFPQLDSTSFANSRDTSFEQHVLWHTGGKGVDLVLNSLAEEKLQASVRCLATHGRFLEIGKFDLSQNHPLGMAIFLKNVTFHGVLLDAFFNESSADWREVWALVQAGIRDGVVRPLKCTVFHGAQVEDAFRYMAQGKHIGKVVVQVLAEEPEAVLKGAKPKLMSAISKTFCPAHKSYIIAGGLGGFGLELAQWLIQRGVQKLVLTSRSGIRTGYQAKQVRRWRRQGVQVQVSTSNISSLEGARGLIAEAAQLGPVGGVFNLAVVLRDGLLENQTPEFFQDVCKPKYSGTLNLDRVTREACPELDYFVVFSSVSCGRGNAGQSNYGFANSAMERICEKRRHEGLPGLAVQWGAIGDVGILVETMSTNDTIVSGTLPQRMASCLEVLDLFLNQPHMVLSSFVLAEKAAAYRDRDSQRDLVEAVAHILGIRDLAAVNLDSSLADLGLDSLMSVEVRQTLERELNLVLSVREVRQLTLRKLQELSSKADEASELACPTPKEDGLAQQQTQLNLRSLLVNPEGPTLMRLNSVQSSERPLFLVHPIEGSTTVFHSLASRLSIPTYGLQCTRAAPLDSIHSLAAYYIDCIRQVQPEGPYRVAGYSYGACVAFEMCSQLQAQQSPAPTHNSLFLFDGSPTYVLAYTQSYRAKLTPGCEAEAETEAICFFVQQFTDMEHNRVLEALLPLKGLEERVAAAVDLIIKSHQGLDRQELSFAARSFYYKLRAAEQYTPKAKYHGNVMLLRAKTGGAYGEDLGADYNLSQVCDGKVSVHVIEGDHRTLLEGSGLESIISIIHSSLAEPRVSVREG

Fatty acid synthase [7] = target: T1, Fatty acid synthase; experiment: inhibition of human FAS-TE enzyme activity – biochemical, kinetic fluorescence intensity, dose response (AID 624326); format: functional;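 note: rate of fluorescence rise from hydrolysis of a fluorogenic O-methyl fluorescein ester substrate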
[8] = reduction of Shn3 3'UTR-driven luciferase in osteoblasts – cell-based, Clone20 osteoblasts, firefly luciferase, cherry-picked, dose response (AID 624132); format: functional;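 note: firefly luciferase luminescence from reporter carrying the Shn3 3'UTR in osteoblasts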
[9] = loss of viability in HepG2 cells – cell-based, CellTiter-Glo, cherry-picked, cytotoxicity control for Shn3 inhibitor project, dose response (AID 624134); format: functional
[10] = non-specific 3'UTR reporter inhibition in Clone20-Shn3RL – cell-based, Renilla luciferase, cherry-picked, counter-screen for Shn3 inhibitor project, dose response (AID 624133); format: functional
[11] = target: T2, Polyadenylate-binding protein 1 (Homo sapiens, UniProt P11940); experiment: MLLE binding blockers, Cy5 peptide tracer – biochemical, fluorescence polarization, Cy5-PAM2 peptide, secondary, miRNA deadenylation inhibitor project, dose response (AID 602260); format: functional; settings: read-out: IC50_Mean
T2 sequence (P11940 whole entry, the tested form may be a part): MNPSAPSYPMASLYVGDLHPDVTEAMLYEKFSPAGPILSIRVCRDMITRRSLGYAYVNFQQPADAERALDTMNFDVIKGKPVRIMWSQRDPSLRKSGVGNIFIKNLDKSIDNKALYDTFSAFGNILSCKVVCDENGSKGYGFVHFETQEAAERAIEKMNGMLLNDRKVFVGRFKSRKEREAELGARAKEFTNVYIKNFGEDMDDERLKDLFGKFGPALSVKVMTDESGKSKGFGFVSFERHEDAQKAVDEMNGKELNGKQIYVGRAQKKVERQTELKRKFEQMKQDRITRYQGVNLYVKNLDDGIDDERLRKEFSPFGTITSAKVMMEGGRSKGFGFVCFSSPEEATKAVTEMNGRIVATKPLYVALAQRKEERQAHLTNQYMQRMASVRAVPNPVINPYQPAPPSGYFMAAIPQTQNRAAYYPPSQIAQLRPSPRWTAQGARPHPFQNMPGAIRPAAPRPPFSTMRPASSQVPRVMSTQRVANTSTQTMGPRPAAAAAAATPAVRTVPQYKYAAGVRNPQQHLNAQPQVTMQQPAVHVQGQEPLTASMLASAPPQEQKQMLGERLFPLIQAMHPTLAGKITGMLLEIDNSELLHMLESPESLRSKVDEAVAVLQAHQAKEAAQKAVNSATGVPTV

[12] = target: T2, Polyadenylate-binding protein 1; experiment: MLLE domain peptide-binding blockers, IC50 – biochemical, fluorescence polarization, FITC-PAM2 peptide, dose response (AID 602259); format: functional; settings: read-out: IC50_Mean

Chain of Induced myeloid leukemia cell differentiation protein Mcl-1 (Q07820 whole entry): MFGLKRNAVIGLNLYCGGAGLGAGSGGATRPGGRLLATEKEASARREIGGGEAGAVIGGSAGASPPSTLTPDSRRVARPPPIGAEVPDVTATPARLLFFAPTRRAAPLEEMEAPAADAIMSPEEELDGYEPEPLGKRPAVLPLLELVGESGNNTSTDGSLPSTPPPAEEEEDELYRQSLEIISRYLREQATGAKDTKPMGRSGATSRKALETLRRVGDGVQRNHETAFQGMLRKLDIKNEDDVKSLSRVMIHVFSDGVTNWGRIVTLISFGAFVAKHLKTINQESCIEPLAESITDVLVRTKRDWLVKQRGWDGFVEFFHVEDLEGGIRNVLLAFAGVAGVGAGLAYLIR

IC50 [1]: 3.52 µM (active)
Compound: N#C/C(=C\c1ccc(C(=O)O)cc1)c1nc(O)c2c3c(sc2n1)CCCC3

Compound: COCCCNCCOCCOc1ccc(Cl)cc1C(C)(C)C
EC50 [2]: 14.9 µM (active) | EC50 [3]: 14.3 µM (active)

Compound: COc1cc(CNCCc2ccc(S(N)(=O)=O)cc2)ccc1OCc1ccc(Cl)cc1
EC50 [4]: 0.43 µM (active) | EC50 [2]: 9.48 µM (active) | EC50 [5]: > 60 µM (not active) | EC50 [3]: 7.47 µM (active)

IC50 [1]: 1.48 µM (not active)
Compound: O=C(C1=C[C@@H](c2ccc(C(F)(F)F)cc2)C[C@@H](OCc2ccc(CO)cc2)O1)N1CCN(Cc2ccccc2)CC1

AC50 (Paired box protein Pax-8): 14.3 µM (active)
Compound: CCO[C@H]1OC(C(=O)N2CCN(Cc3ccccc3)CC2)=C[C@@H](c2ccc(C(F)(F)F)cc2)[C@@H]1CCCO

Compound: NC(CSC(c1ccccc1)(c1ccccc1)c1ccccc1)C(=O)O (stereo not drawn)
GI50 (P388/ADR): 5.43 µM (inactive) | GI50 (SN12K1): 0.352 µM (active) | GI50 (P388): 0.494 µM (active)

Compound: NS(=O)(=O)OCCCCCCCOS(N)(=O)=O
GI50 (P388/ADR): > 83 µM (inactive) | GI50 (SN12K1): 273 µM (inactive) | GI50 (P388): 35.1 µM (inactive)

IC50 (Fatty acid synthase [6]): 1.32 µM (active) | IC50 (Fatty acid synthase [7]): 0.761 µM (active)
Compound: Cc1ccc(-c2csc3nc(C(C)C)oc(=O)c23)c(C)c1

Compound: COc1ccccc1Cc1c(-c2ccco2)nc2c(C)cc(Br)cn12
AC50 [8]: 1.9 µM (active) | AC50 [9]: 45.6 µM (active) | AC50 [10]: 5.7 µM (active)

Compound: O=P(NCCCO)(OCc1ccccc1)N(CCCl)CCCl (stereo not drawn)
GI50 (P388/ADR): > 100 µM (inactive) | GI50 (SN12K1): > 100 µM (inactive) | GI50 (P388): > 100 µM (inactive)

Compound: CN1CCC23c4ccccc4NC1C21CCN(C)C3Nc2ccccc21
GI50 (P388/ADR): > 254 µM (inactive) | GI50 (SN12K1): 202 µM (inactive) | GI50 (P388): 57.7 µM (inactive)

Compound: N=C(N)SCc1cccc([N+](=O)[O-])c1
GI50 (P388/ADR): 15.7 µM (inactive) | GI50 (SN12K1): 32.7 µM (inactive) | GI50 (P388): 15.5 µM (inactive)

Compound: CC(=O)Oc1cc2c(cc1OC(C)=O)OCC(c1ccc(C)cc1)C2 (stereo not drawn)
GI50 (P388/ADR): 3.05 µM (inactive) | GI50 (SN12K1): 14 µM (inactive) | GI50 (P388): 2.87 µM (inactive)

IC50 (Fatty acid synthase [6]): 1.47 µM (active) | IC50 (Fatty acid synthase [7]): 1.16 µM (active)
Compound: CC(C)(C)OC(=O)NCCc1onc(-c2cccc([N+](=O)[O-])c2)c1C(=O)O

AC50 (Paired box protein Pax-8): 22.4 µM (active)
Compound: CCCC#Cc1ccc([C@@H]2[C@H]3CN(S(=O)(=O)c4ccccc4F)CCCCN3[C@H]2CO)cc1

AC50 (Paired box protein Pax-8): 10.9 µM (active)
Compound: COc1cccc(-c2ccc3c(c2)[C@@H]2[C@@H](CCN2C(=O)NC2CCCCC2)[C@H](CO)N3C)c1

AC50 (Paired box protein Pax-8): 34.3 µM (active)
Compound: O=C(C[C@@H]1C[C@H]2c3cc(NC(=O)C4CCOCC4)ccc3O[C@H]2[C@H](CO)O1)NCc1ccc(Oc2ccccc2)cc1

Compound: CCOc1cc(/C=C2/S/C(=N/c3ccccc3)N(Cc3cccnc3)C2=O)ccc1OCC#N
EC50 [2]: 26.9 µM (active) | EC50 [3]: 32.5 µM (active)

Compound: CC(=C/c1ccccc1)/C=N/Nc1nc(N2CCCCC2)nc(N2CCCCC2)n1
EC50 [2]: 24 µM (active) | EC50 [3]: 21.6 µM (active)

Compound: c1cc2c3c(c1)c1cc4c(cc1c[n+]3CC2)OCO4 [ANHYDROLYCORINIUM CHLORIDE]
GI50 (P388/ADR): 22 µM (inactive) | GI50 (SN12K1): 1.95 µM (inactive) | GI50 (P388): 0.515 µM (active)

Compound: CN(C)CCN1C(=O)c2cccc3cc([N+](=O)[O-])cc(c23)C1=O [MITONAFIDE]
IC50 [11]: > 66 µM (inactive) | AC50 [8]: 1.11 µM (active) | IC50 [12]: 43.4 µM (inactive) | AC50 [9]: 2.2 µM (active)
